Measured values as given in US11661437B2, “Steroid derivative regulators, method for preparing the same, and uses thereof” (priority 2018, dated 2023).

Key:
[1] = system: ICR mice; assay: In vivo pharmacodynamic test in the forced swimming model in mice; details: for immobility time during the latter four minutes compared with that of the model group: 10 mg/kg p.o.; for Mean (immobility, %) / Mean (immobility, s): 10 mpk p.o.; for Mean (immobility, %): floating time percentage = 100*floating time/240 s; for Mean (immobility, s): latter four minutes of 6 min swim
Protocol: The antidepressant effect of the compound was evaluated by the forced swimming model in mice.
Male ICR mice (25-35 g) were adapted in the test environment for 3 days before the forced swimming test.
According to the test design, the mice were randomly grouped on the day before the test according to body weight, with 12 mice in each group. Before the test, the compounds of each example were administrated intragastrically according to the Tmax thereof in the brain in mice pharmacokinetic test as follows:
1) Model group (0.5% CMC-Na+1% Tween 80 solution, p.o., 10 mL/kg);
2) Compounds of Example 2, Example 5, Example 7, Example 18, Example 23, Example 26 and Example 50 (10 mg/kg, p.o., 10 mL/kg).
When being administrated, the compounds of each example were suspended in 0.5% CMC-Na-1% Tween 80 solution to the desired concentration.
0.5-1 hour after administration, ICR mice were placed in a forced swimming device (transparent glass drum (water depth 18 cm, water temperature 25-26° C.), one mouse per tank) and forced to swim for 6 minutes. The forced swimming device recorded the floating time of the ICR mice during the entire 6 minutes, and the data of the latter four minutes were used for data analysis. The mice were taken out immediately after the swimming test, wiped dry and put back in their original cages.
Note: The criterion for determining the immobility time is that the mouse stops struggling in water and floats, and there are only slight limb movements to keep the head floating on the water.
3.4 Data Analysis Floating time percentage=100*floating time/240 s.

[2] = system: CD-1 mice; assay: In vivo pharmacodynamic test in the PTZ-induced epilepsy model in mice; details: 3 mpk p.o., PTZ 120 mg/kg s.c., 30 min observation
Protocol: The PTZ-induced epilepsy model in CD-1 mice was established, and the antiepileptic effect of the compounds of Example 5 and Example 23 was evaluated using this model.
30 male CD-1 mice were purchased from Beijing Vital River Laboratory Animal Technology Co. Ltd. The test animals were adapted at the animal room in the third building of Shanghai ChemPartner Co., Ltd for 7 days before the test. The average body weight of the animals on the test day was 32.2±0.2 grams. Feeding environment: 5 animals/cage, room temperature 23±2° C., 12/12 hours of light and dark cycle, free access to food and water.
1) Vehicle/PTZ: 0.5% CMC-Na+1% Tween-80 (10 ml/kg, p.o.), administrated 0.5 hr before the PTZ administration; PTZ ([…], s.c.), administrated before the test;
2) 3 mg/kg of the compounds of Examples/PTZ: the compounds of Example 5 and Example 23 (3 mg/kg, 10 ml/kg, p.o.), administrated 0.5 hr before the PTZ administration; PTZ ([…], s.c.), administrated before the test.
3) The compounds of Example 5 and Example 23 were administrated respectively 1 hour before the PTZ administration, or 0.5% CMC-NA+1% Tween-80, the compounds of Example 5 and Example 23 were administrated respectively 0.5 hour before the PTZ administration;
4) PTZ (120 mg/kg) was administrated subcutaneously before the test observation, and this time point was recorded as the observation start point;
6) The possible side effects induced by the drug after the administration were observed and recorded, which can be divided into four levels: • None: normal • Mild sedation • Moderate sedation • Severe sedation
The mice were randomly grouped, marked and weighed; 10 mice per group. The test compound was administrated orally at an administration volume of 10 mL/kg 30-60 minutes before the PTZ administration.
PTZ (120 mg/kg) was administrated subcutaneously before the test observation, and this time point was recorded as the observation start point; after the administration of PTZ, the animal was immediately placed in the observation box and observed for 30 minutes, and the followings were recorded: a) the incubation period of the first clonic seizure, b) the incubation period of the first generalized tonic seizure, c) the number of clonic seizures, d) the number of generalized tonic seizures, e) the time when the animal died.
All measurement data were expressed as Mean±SEM, and analysed with Prism 6.0 statistical software.

SMILES	immobility time during the latter four minutes compared with that of the model group [1]	Mean (immobility, %) [1] [%]	Mean (immobility, s) [1] [s]	Incubation period of the clonic seizure Mean ± SEM [2] [s]	Incubation period of the generalized tonic seizure Mean [2] [s]	Mortality rate [2] [%]	Number of clonic seizures Mean [2]	Number of generalized tonic seizures Mean [2]	Time when the animal died Mean [2] [s]
C[C@@]1(O)CC[C@@]2(F)[C@H](CC[C@H]3[C@@H]4CC[C@H](C(=O)Cn5cc(C#N)cn5)[C@@]4(C)CC[C@@H]32)C1 [Example 2, 1-(2-((3R,5R,8S,9S,10R,13S,14S,17S)-10-Fluoro-3-hydroxy-3,13-dimethylhexadecahydro-1H-cyclopenta[a]phenanthren-17-yl)-2-oxoethyl)-1H-pyrazole-4-carbonitrile]	significantly different	36.39	87.34	–	–	–	–	–	–
C[C@@]1(O)CC[C@@]2(F)[C@H](CC[C@H]3[C@@H]4CC[C@H](C(=O)CNc5ccc(F)cc5)[C@@]4(C)CC[C@@H]32)C1 [Example 23, 1-((3R,5R,8S,9S,10R,13S,14S,17S)-10-Fluoro-3-hydroxy-3,13-dimethylhexadecahydro-1H-cyclopenta[a]phenanthren-17-yl)-2-((4-fluorophenyl)amino)ethan-1-one]	very significantly different	28.55	68.51	366.5 ± 21.1	1519.9 ± 117.9	40	1.8 ± 0.2	0.4 ± 0.2	1527.7 ± 114.6
C[C@@]1(O)CC[C@@]2(F)[C@H](CC[C@H]3[C@@H]4CC[C@H](C(=O)Cn5ccc(C(F)(F)F)n5)[C@@]4(C)CC[C@@H]32)C1 [Example 5, 1-((3R,5R,8S,9S,10R,13S,14S,17S)-10-Fluoro-3-hydroxy-3,13-dimethylhexadecahydro-1H-cyclopenta[a]phenanthren-17-yl)-2-(3-(trifluoromethyl)-1H-pyrazol-1-yl)ethan-1-one]	very significantly different	27.11	65.07	644.5 ± 122.0	1576.7 ± 108.8	40	1.8 ± 0.3	0.4 ± 0.2	1623.0 ± 105.5
